Source: ChEMBL document CHEMBL2073856, “Carrier-mediated hepatobiliary transport of a novel antifolate, N-[4-[(2,4-dianninopteridine-6-yl)methyl]-3,4-dihydro-2H-1,4-benzothiazin-7-yl]carbonyl-L-homoglutamic acid, in rats” (Drug Metab Dispos, 2001)

Experiments:
[1] = target: ATP-binding cassette sub-family C member 2 (Rattus norvegicus, UniProt Q63120); test: TP_TRANSPORTER: inhibition of DNP-SG uptake in bile canalicular membrane vesicles from SD rat; assay type: functional, cell membranes, Sprague-Dawley, Bile canalicular membrane vesicle
[2] = substrate: Nc1nc(N)c2nc(CN3CCSc4cc(C(=O)NC(CCCC(=O)O)C(=O)O)ccc43)cnc2n1; test: TP_TRANSPORTER: uptake in bile canalicular membrane vesicles from SD rat; assay type: functional, cell membranes, Sprague-Dawley, Bile canalicular membrane vesicle

With `Nc1nc(N)c2nc(CN3CCSc4cc(C(=O)NC(CCCC(=O)O)C(=O)O)ccc43)cnc2n1` (configuration not stated) the Ki [1] was 162 µM.

B1: ATP-binding cassette sub-family C member 2 (Rattus norvegicus) (protein)
chain: MDKFCNSTFWDLSLLESPEADLPLCFEQTVLVWIPLGFLWLLAPWQLYSVYRSRTKRSSITKFYLAKQVFVVFLLILAAIDLSLALTEDTGQATVPPVRYTNPILYLCTWLLVLAVQHSRQWCVRKNSWFLSLFWILSVLCGVFQFQTLIRALLKDSKSNMAYSYLFFVSYGFQIVLLILTAFSGPSDSTQTPSVTASFLSSITFSWYDRTVLKGYKHPLTLEDVWDIDEGFKTRSVTSKFEAAMTKDLQKARQAFQRRLQKSQRKPEATLHGLNKKQSQSQDVLVLEEAKKKSEKTTKDYPKSWLIKSLFKTFHVVILKSFILKLIHDLLVFLNPQLLKLLIGFVKSSNSYVWFGYICAILMFAVTLIQSFCLQSYFQHCFVLGMCVRTTVMSSIYKKALTLSNLARKQYTIGETVNLMSVDSQKLMDATNYMQLVWSSVIQITLSIFFLWRELGPSILAGVGVMVLLIPVNGVLATKIRNIQVQNMKNKDKRLKIMNEILSGIKILKYFAWEPSFQEQVQGIRKKELKNLLRFGQLQSLLIFILQITPILVSVVTFSVYVLVDSANVLNAEKAFTSITLFNILRFPLSMLPMVTSSILQASVSVDRLERYLGGDDLDTSAIRRVSNFDKAVKFSEASFTWDPDLEATIQDVNLDIKPGQLVAVVGTVGSGKSSLVSAMLGEMENVHGHITIQGSTAYVPQQSWIQNGTIKDNILFGSEYNEKKYQQVLKACALLPDLEILPGGDMAEIGEKGINLSGGQKQRVSLARAAYQDADIYILDDPLSAVDAHVGKHIFNKVVGPNGLLAGKTRIFVTHGIHFLPQVDEIVVLGKGTILEKGSYRDLLDKKGVFARNWKTFMKHSGPEGEATVNNDSEAEDDDDGLIPTMEEIPEDAASLAMRRENSLRRTLSRSSRSSSRRGKSLKNSLKIKNVNVLKEKEKEVEGQKLIKKEFVETGKVKFSIYLKYLQAVGWWSILFIILFYGLNNVAFIGSNLWLSAWTSDSDNLNGTNNSSSHRDMRIGVFGALGLAQGICLLISTLWSIYACRNASKALHGQLLTNILRAPMRFFDTTPTGRIVNRFSGDISTVDDLLPQTLRSWMMCFFGIAGTLVMICMATPVFAIIIIPLSILYISVQVFYVATSRQLRRLDSVTKSPIYSHFSETVTGLPIIRAFEHQQRFLAWNEKQIDINQKCVFSWITSNRWLAIRLELVGNLVVFCSALLLVIYRKTLTGDVVGFVLSNALNITQTLNWLVRMTSEAETNIVAVERISEYINVENEAPWVTDKRPPADWPRHGEIQFNNYQVRYRPELDLVLKGITCNIKSGEKVGVVGRTGAGKSSLTNCLFRILESAGGQIIIDGIDVASIGLHDLRERLTIIPQDPILFSGSLRMNLDPFNKYSDEEVWRALELAHLRSFVSGLQLGLLSEVTEGGDNLSIGQRQLLCLGRAVLRKSKILVLDEATAAVDLETDSLIQTTIRKEFSQCTVITIAHRLHTIMDSDKIMVLDNGKIVEYGSPEELLSNRGSFYLMAKEAGIENVNHTEL
In the case of B1, the Km [2] is reported as 207 µM.
